Data set [1] concerns the target Maltase-glucoamylase (Homo sapiens) (UniProt O43451). As to the kind of experiment: Inhibition of alpha-glucosidase (unknown origin) using pNPG as substrate at 64 uM preincubated with enzyme for 15 mins followed by substrate addition and measured after 10 mins by microplate reader analysis. To be noted: time 25.0 min.
Data set [2] shares this target. As to the kind of experiment: Competitive inhibition of alpha-glucosidase (unknown origin) using pNPG as substrate preincubated with enzyme for 15 mins followed by substrate addition and measured for 15 mins by Lineweaver-Burk plot analysis. To be noted: time 30.0 min.
Data set [3] is described as follows: Cytotoxicity against human L02 cells assessed as cell viability at 64 uM by CCK8 assay. To be noted: read-out: Activity. In kind it is toxicity, cell-based. A general note: Tetrazolium assays rely on reduction of a dye to a coloured formazan, in cell work by metabolically active cells.
Data set [4] concerns the target Maltase-glucoamylase (Homo sapiens) (UniProt O43451). As to the kind of experiment: Reversible inhibition of alpha-glucosidase (unknown origin) using pNPG as substrate assessed as reduction in velocity of enzyme-catalyzed reaction.
The target is the same in data set [5]. As to the kind of experiment: Non-competitive inhibition of alpha-glucosidase (unknown origin) using pNPG as substrate preincubated with enzyme for 15 mins followed by substrate addition and measured for 15 mins by Lineweaver-Burk plot analysis. To be noted: time 30.0 min.

Active and inactive are the calls of the source. No cut-off for these calls is given here. Some results are limits rather than exact numbers.

This is an account of results in ChEMBL document CHEMBL5236583, “Semisynthesis, biological activities, and mechanism studies of Mannich base analogues of magnolol/honokiol as potential α-glucosidase inhibitors” (Bioorg Med Chem, 2022).

Broadly, the inhibition is the share of the control response that was lost under treatment.

Chain of Maltase-glucoamylase (Homo sapiens) (O43451 whole entry, looked up): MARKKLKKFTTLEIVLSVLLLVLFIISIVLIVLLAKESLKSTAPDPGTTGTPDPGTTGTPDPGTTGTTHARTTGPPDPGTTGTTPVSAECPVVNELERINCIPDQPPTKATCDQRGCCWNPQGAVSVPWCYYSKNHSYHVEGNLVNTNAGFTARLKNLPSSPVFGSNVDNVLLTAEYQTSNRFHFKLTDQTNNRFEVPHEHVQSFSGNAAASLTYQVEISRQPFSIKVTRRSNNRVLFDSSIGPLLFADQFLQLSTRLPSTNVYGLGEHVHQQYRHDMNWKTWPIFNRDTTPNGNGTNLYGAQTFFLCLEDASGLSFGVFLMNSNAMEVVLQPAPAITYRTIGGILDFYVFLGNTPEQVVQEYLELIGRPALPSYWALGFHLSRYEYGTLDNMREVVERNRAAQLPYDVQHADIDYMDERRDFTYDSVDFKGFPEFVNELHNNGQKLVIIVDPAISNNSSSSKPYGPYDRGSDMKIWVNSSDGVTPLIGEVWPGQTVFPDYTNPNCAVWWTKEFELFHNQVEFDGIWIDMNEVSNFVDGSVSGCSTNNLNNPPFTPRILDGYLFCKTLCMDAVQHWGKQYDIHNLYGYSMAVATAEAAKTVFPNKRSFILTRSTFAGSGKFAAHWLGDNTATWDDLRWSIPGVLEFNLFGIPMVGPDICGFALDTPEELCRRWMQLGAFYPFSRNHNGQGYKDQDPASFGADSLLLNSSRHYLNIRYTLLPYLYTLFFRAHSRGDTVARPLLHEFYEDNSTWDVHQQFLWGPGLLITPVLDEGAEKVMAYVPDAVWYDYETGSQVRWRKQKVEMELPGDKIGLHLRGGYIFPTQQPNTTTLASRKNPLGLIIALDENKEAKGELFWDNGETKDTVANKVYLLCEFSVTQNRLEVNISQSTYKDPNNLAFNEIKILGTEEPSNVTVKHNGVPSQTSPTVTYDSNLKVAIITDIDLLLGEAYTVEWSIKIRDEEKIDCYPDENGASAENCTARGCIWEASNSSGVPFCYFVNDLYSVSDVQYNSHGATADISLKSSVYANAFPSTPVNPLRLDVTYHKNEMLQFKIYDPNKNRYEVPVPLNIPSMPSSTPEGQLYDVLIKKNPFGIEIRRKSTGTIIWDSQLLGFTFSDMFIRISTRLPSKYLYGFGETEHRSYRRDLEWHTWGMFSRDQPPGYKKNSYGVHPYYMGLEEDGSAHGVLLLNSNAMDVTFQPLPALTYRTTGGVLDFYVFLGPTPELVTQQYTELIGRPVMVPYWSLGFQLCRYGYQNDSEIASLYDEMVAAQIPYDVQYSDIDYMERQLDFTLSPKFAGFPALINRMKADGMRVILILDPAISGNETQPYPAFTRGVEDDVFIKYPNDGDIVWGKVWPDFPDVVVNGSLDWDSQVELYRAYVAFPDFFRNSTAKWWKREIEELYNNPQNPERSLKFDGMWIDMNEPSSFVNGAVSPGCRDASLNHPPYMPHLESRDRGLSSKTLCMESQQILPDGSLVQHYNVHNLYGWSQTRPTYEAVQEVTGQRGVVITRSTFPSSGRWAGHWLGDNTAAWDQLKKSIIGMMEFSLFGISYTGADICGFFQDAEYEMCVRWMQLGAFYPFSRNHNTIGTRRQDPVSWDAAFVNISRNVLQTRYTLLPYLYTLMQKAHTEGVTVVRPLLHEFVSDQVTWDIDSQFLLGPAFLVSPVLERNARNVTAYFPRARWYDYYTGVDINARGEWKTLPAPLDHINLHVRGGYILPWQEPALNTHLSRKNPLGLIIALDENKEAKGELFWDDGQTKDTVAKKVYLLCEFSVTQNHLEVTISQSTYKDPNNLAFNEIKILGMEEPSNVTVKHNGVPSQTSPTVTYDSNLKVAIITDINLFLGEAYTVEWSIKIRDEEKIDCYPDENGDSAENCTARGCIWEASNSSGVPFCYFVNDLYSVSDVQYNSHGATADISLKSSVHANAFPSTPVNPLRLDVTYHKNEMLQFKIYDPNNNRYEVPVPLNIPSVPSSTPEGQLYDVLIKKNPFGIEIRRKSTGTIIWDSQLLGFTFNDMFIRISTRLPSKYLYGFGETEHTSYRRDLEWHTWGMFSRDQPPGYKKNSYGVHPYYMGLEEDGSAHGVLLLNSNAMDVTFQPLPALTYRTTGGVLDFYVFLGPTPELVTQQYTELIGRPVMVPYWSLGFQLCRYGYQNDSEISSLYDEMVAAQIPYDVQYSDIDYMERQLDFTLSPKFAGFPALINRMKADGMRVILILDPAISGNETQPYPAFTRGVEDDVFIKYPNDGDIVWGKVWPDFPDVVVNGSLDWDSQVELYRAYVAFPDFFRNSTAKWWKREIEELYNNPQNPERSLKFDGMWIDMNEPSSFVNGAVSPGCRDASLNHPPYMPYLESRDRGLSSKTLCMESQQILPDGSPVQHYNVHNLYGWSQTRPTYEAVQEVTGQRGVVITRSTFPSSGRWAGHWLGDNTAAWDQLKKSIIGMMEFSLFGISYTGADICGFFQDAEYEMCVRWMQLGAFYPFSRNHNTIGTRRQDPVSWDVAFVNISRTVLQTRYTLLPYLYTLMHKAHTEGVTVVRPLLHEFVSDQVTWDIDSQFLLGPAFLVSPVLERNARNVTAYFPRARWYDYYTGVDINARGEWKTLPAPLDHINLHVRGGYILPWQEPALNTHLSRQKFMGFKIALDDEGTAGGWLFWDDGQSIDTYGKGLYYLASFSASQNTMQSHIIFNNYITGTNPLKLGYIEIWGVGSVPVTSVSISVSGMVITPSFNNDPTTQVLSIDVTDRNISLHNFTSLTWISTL

Turning to `C=CCc1ccc(O)c(-c2cc(CC=C)cc(CN3CCC(C)CC3)c2O)c1`, the inhibition in data set [1] was found to be 6.3%. On to `C[C@H]1O[C@H](O[C@H]2[C@H](O)[C@@H](O)[C@@H](O[C@H]3[C@H](O)[C@@H](O)C(O)O[C@@H]3CO)O[C@@H]2CO)[C@H](O)[C@@H](O)[C@@H]1N[C@H]1C=C(CO)[C@@H](O)[C@H](O)[C@H]1O` (stereo partly drawn), for which, in data set [2], the inhibition entry is “Active”. The inhibition in data set [1] came out at 99%. Consider `C=CCc1cc(-c2ccc(O)c(CC=C)c2)c(O)c(C(c2ccc(OC)cc2)N2CCCCC2)c1` (stereo not drawn), for which, in data set [3], the viability at 64 µM is greater than 80%. The same compound displayed an inhibition in data set [1] of 85%. For the compound `C=CCc1cc(-c2ccc(O)c(CC=C)c2)c(O)c(C(c2ccc(Cl)cc2)N2CCC(C)CC2)c1` (stereo not drawn), the inhibition in data set [1] stood at 8.6%. In data set [1], `C=CCc1ccc(O)c(-c2cc(CC=C)cc(CN(C)c3ccccc3)c2O)c1` yielded an inhibition of 15.5%. The same measure, in the same setting: the same measure for `C=CCc1ccc(O)c(-c2ccc(O)c(CC=C)c2)c1`: 30.6%; for `C=CCc1cc(CN(CCC)CCC)c(O)c(-c2cc(CC=C)c(O)c(CN(CCC)CCC)c2)c1`: 4.8%. Same read-out and setting: the same measure for `C=CCc1cc(CN(C)c2ccccc2)c(O)c(-c2cc(CC=C)c(O)c(CN(C)c3ccccc3)c2)c1`: 63%; for `C=CCc1ccc(O)c(-c2cc(CC=C)cc(CN(C)C(C)C)c2O)c1`: 3.4%; for `C=CCc1cc(-c2cc(CC=C)c(O)c(C(c3ccc(OC)cc3)N3CCC(C)CC3)c2)c(O)c(C(c2ccc(OC)cc2)N2CCC(C)CC2)c1` (stereo not drawn): 27.8%. On the same count and under the same terms, the same measure for `C=CCc1cc(-c2ccc(O)c(CC=C)c2)c(O)c(C(c2cc(OC)c(OC)c(OC)c2)N2CCCC2)c1` (stereo not drawn): 43%; for `C=CCc1cc(-c2ccc(O)c(CC=C)c2)c(O)c(C(c2ccccc2)N2CCCCC2)c1` (stereo not drawn): 13.6%; for `C=CCc1cc(CN(CC(C)C)CC(C)C)c(O)c(-c2cc(CC=C)c(O)c(CN(CC(C)C)CC(C)C)c2)c1`: 6.2%. `C=CCc1cc(-c2ccc(O)c(CC=C)c2)c(O)c(C(c2cc(Cl)cc(Cl)c2)N2CCC(C)CC2)c1` (stereo not drawn): the inhibition entry in data set [4] and in data set [5] was “Active” in each case. The viability at 64 µM in data set [3] was greater than 80%. For the same compound, the inhibition in data set [1] came out at 97.5%. `C=CCc1cc(CN2CCCCC2C)c(O)c(-c2cc(CC=C)c(O)c(CN3CCCCC3C)c2)c1` (stereo not drawn): the inhibition in data set [1] is 3.33%.

For the compound `C=CCc1cc(CN2CCC(C)CC2)c(O)c(-c2cc(CC=C)c(O)c(CN3CCC(C)CC3)c2)c1`, the inhibition in data set [1] amounted to 6.5%. Same read-out and setting: the same measure for `C=CCc1ccc(O)c(-c2cc(CC=C)cc(CN3CCN(C)CC3)c2O)c1`: 9.4%; for `C=CCc1cc(-c2ccc(O)c(CC=C)c2)c(O)c(C(c2cc(OC)c(OC)c(OC)c2)N2CCCCC2)c1` (stereo not drawn): 56.4%. On the same count and under the same terms, the same measure for `C=CCc1cc(CN(C(C)C)C(C)C)c(O)c(-c2cc(CC=C)c(O)c(CN(C(C)C)C(C)C)c2)c1`: 7.2%.

Compound `C=CCc1ccc(O)c(-c2cc(CC=C)cc(CN(CC(C)C)CC(C)C)c2O)c1` came in with an inhibition in data set [1] of 3.8%.

Consider `C=CCc1cc(-c2cc(CC=C)c(O)c(C(c3ccc(Cl)cc3)N3CCOCC3)c2)c(O)c(C(c2ccc(Cl)cc2)N2CCOCC2)c1` (stereo not drawn), for which the viability at 64 µM in data set [3] is greater than 80%. For the same compound, the inhibition in data set [1] was found to be 80.1%.

For `C=CCc1cc(-c2ccc(O)c(CC=C)c2)c(O)c(C(c2cc(Cl)cc(Cl)c2)N2CCOCC2)c1` (stereo not drawn), the inhibition result in data set [4] and in data set [5] was “Active” throughout. For the same compound, the viability at 64 µM in data set [3] was greater than 80%. In addition, the inhibition in data set [1] stood at 92.6%. The compound `C=CCc1ccc(O)c(-c2cc(CC=C)cc(CN(CCC)CCC)c2O)c1` returned an inhibition in data set [1] of 6.3%. Still for that read-out and setting: the same measure for `C=CCc1ccc(O)c(-c2cc(CC=C)ccc2O)c1`: 9.6%; for `C=CCc1cc(-c2ccc(O)c(CC=C)c2)c(O)c(C(c2ccc(Cl)cc2)N2CCCCC2)c1` (stereo not drawn): 45%; for `C=CCc1cc(CN(C)C(C)C)c(O)c(-c2cc(CC=C)c(O)c(CN(C)C(C)C)c2)c1`: 4.1%. For `C=CCc1ccc(O)c(-c2cc(CC=C)cc(CN(CCCC)CCCC)c2O)c1`, the inhibition in data set [1] was determined as 8.2%. Same read-out and setting: in the case of `C=CCc1cc(CN(CCCC)CCCC)c(O)c(-c2cc(CC=C)c(O)c(CN(CCCC)CCCC)c2)c1` it was 4.7%.

Consider `C=CCc1cc(-c2ccc(O)c(CC=C)c2)c(O)c(C(c2ccc(OC)cc2)N2CCOCC2)c1` (stereo not drawn), for which the inhibition in data set [1] was 6.2%. Still for that read-out and setting: the same measure for `C=CCc1cc(-c2ccc(O)c(CC=C)c2)c(O)c(C(c2ccccc2)N2CCC(C)CC2)c1` (stereo not drawn): 25.8%. In the case of `C=CCc1cc(-c2ccc(O)c(CC=C)c2)c(O)c(C(c2cc(Cl)cc(Cl)c2)N2CCCCC2)c1` (stereo not drawn), the viability at 64 µM in data set [3] is greater than 80%. In data set [1], the inhibition is 87.7%. In data set [1], `C=CCc1cc(-c2ccc(O)c(CC=C)c2)c(O)c(C(c2ccc(Cl)cc2)N2CCCC2)c1` (stereo not drawn) yielded an inhibition of 40.6%. On the same count and under the same terms, the same measure for `C=CCc1cc(CN2CCCC2)c(O)c(-c2cc(CC=C)c(O)c(CN3CCCC3)c2)c1`: 4.7%.
